System: TEAD-dependent transcription (12XGTIIC TEAD response element luciferase reporter) in MSTO-211H cells
Assay: TEAD-dependent transcription cell-based luciferase reporter assay in MSTO-211H+12XGTIIC cells
Conditions: Homo sapiens; MSTO-211H+12XGTIIC reporter cells, 24 hours compound incubation, luminescence normalized to cell viability signal, geometric mean; read-out: MSTO-211H GMean IC50 (uM) Cell Assay Reporter Cell Variant: TEAD
Excerpt: Determine Inhibitor Activity Against TEAD-Dependent Transcription in a Cell-Based Reporter Assay
The human mesothelioma cell line MSTO-211H was stably transfected with a pGL4.21 plasmid containing a synthetic promoter with 12 copies of the GTIIC TEAD response element that drives the expression of a luciferase reporter gene^1 using Lipofectamine transfection reagent (Thermo Fisher). Transfected cells were selected using puromycin and single cell clones expressing this construct (referred to as MSTO-211H+12XGTIIC) were generated by limiting dilution. MSTO-211H cells was characterized by genetic alterations in key components of the Hippo pathway^2, resulting in up-regulation of YAP/TEAD-mediated transcription. […] To evaluate TEAD inhibitors, the MSTO-211H+12XGTIIC cell line was seeded in a 96-well plate in 50 μL of culture media at 1×10^4 cells per well and incubated at 37° C. overnight. Serial dilutions of compounds (in total volume of 50 μL of culture media) were added to the cells and incubated at 37° C. for 24 hours. Each plate included cells treated with DMSO as high controls and cells treated with 20 μM of the reference compound K-975 (a known TEAD inhibitor^3) as low controls. Cell viability was assayed by the addition of 25 μL of CellTiter-Fluor reagent (Promega) followed by a 30-minute incubation at 37° C. and quantification of the fluorescence signal (Ex400/Em505). Subsequently, luciferase expression was assayed by the addition of 25 μL of ONE-Glo reagent (Promega) followed by a 10-minute incubation at room temperature and quantification of the luminescence signal. The luminescence signal was normalized to the fluorescence signal to correct for any loss in cell viability over the 24-hour compound incubation period. The percentage of inhibition of normalized luminescence signal, indicative of compound-mediated inhibition of TEAD-dependent transcription, at individual compound concentrations relative to high and low controls was calculated. The data were analyzed by using nonlinear regression to generate IC50 values for individual compounds.

`CN(c1ccc(C(F)(F)F)cc1)c1cccc2c1CCN(C(=O)Cc1cn[nH]c1)C2` [Compound O-0011, 1-(5-(methyl(4-(trifluoromethyl)phenyl)amino)-3,4-dihydroisoquinolin-2(1H)-yl)-2-(1H-pyrazol-4-yl)ethan-1-one] was tested, and the IC50 was 0.001 to 10 µM.
Molecule `NC(=O)NCCC(=O)N1CCc2c(cccc2Nc2ccc(C(F)(F)F)c(F)c2)C1` [Compound O-0190, 1-(3-(5-((3-fluoro-4-(trifluoromethyl)phenyl)amino)-3,4-dihydroisoquinolin-2(1H)-yl)-3-oxopropyl)urea] has an IC50 of 0.001 to 10 µM.
In the case of `O=C(NC1CC1)N1CCC(C(=O)N2CCc3c(cccc3Nc3ccc(C(F)(F)F)cn3)C2)C1` (centres unmarked) [Compound O-0092, N-cyclopropyl-3-(5-((5-(trifluoromethyl)pyridin-2-yl)amino)-1,2,3,4-tetrahydroisoquinoline-2-carbonyl)pyrrolidine-1-carboxamide], the IC50 is reported as 0.001 to 10 µM.
With `O=C(c1cccc2[nH]c(C(F)(F)F)nc12)N1CCc2c(cccc2Nc2ccc(C(F)(F)F)cc2)C1` [Compound O-0058, (2-(trifluoromethyl)-1H-benzo[d]imidazol-4-yl)(5-((4-(trifluoromethyl)phenyl)amino)-3,4-dihydroisoquinolin-2(1H)-yl)methanone] the IC50 was 0.001 to 10 µM.
Molecule `O=C(NCCC(=O)N1CCc2c(cccc2Nc2ccc(C(F)(F)F)nc2)C1)NC1CC1` [Compound O-0195, 1-cyclopropyl-3-(3-oxo-3-(5-((6-(trifluoromethyl)pyridin-3-yl)amino)-3,4-dihydroisoquinolin-2(1H)-yl)propyl)urea] has an IC50 of 0.001 to 10 µM.
`O=C1NC(=O)C(CC(=O)N2CCc3c(cccc3Nc3ccc(C(F)(F)F)c(F)c3)C2)N1` (centres unmarked) [Compound O-0197, 5-(2-(5-((3-fluoro-4-(trifluoromethyl)phenyl)amino)-3,4-dihydroisoquinolin-2(1H)-yl)-2-oxoethyl)imidazolidine-2,4-dione] was tested, and the IC50 was 0.001 to 10 µM.
Work on `CS(=O)(=O)c1nccc(C(=O)N2CCc3c(cccc3Nc3ccc(C(F)(F)F)cc3)C2)n1` [Compound O-0040, (2-(methylsulfonyl)pyrimidin-4-yl)(5-((4-(trifluoromethyl)phenyl)amino)-3,4-dihydroisoquinolin-2(1H)-yl)methanone] yielded an IC50 of 0.001 to 10 µM.
Molecule `C=CC(=O)Nc1cccc(C(=O)N2CCc3c(cccc3N(C)c3ccc(C(F)(F)F)cc3)C2)n1` [Compound O-0018, N-(6-(5-(methyl(4-(trifluoromethyl)phenyl)amino)-1,2,3,4-tetrahydroisoquinoline-2-carbonyl)pyridin-2-yl)acrylamide] has an IC50 of 0.001 to 10 µM.
`Nc1cncc(C(=O)N2CCc3c(cccc3Nc3ccc(C(F)(F)F)cc3)C2)c1` [Compound O-0031, (5-aminopyridin-3-yl)(5-((4-(trifluoromethyl)phenyl)amino)-3,4-dihydroisoquinolin-2(1H)-yl)methanone] gave an IC50 of 0.001 to 10 µM.
Molecule `O=C(Nc1ccccn1)N1CCC(C(=O)N2CCc3c(cccc3Nc3ccc(C(F)(F)F)nc3)C2)C1` (centres unmarked) [Compound O-0097, N-(pyridin-2-yl)-3-(5-((6-(trifluoromethyl)pyridin-3-yl)amino)-1,2,3,4-tetrahydroisoquinoline-2-carbonyl)pyrrolidine-1-carboxamide] has an IC50 of 0.001 to 10 µM.
With `Nc1ccnc(C(=O)N2CCc3c(cccc3Nc3ccc(C(F)(F)F)cc3)C2)c1` [Compound O-0030, (4-aminopyridin-2-yl)(5-((4-(trifluoromethyl)phenyl)amino)-3,4-dihydroisoquinolin-2(1H)-yl)methanone] the IC50 was 0.001 to 10 µM.
`NC(=O)NCCC(=O)N1CCc2c(cccc2Nc2ccc(C(F)(F)F)cc2F)C1` [Compound O-0192, 1-(3-(5-((2-fluoro-4-(trifluoromethyl)phenyl)amino)-3,4-dihydroisoquinolin-2(1H)-yl)-3-oxopropyl)urea] showed an IC50 of 0.001 to 10 µM.
`O=C(NCc1ccccn1)N1CCc2c(cccc2Nc2ccc(C(F)(F)F)cc2)C1` [Compound O-0194, N-(pyridin-2-ylmethyl)-5-((4-(trifluoromethyl)phenyl)amino)-3,4-dihydroisoquinoline-2(1H)-carboxamide] gave an IC50 of 0.001 to 10 µM.
In the case of `O=C1NC(=O)C(CC(=O)N2CCc3c(cccc3Nc3ccc(C(F)(F)F)cc3)C2)N1` (centres unmarked) [Compound O-0055, 5-(2-oxo-2-(5-((4-(trifluoromethyl)phenyl)amino)-3,4-dihydroisoquinolin-2(1H)-yl)ethyl)imidazolidine-2,4-dione], the IC50 is reported as 0.001 to 10 µM.
For `O=C(CCS(=O)(=O)C(F)(F)F)N1CCc2c(cccc2Nc2ccc(C(F)(F)F)cn2)C1` [Compound O-0021, 1-(5-((5-(trifluoromethyl)pyridin-2-yl)amino)-3,4-dihydroisoquinolin-2(1H)-yl)-3-((trifluoromethyl)sulfonyl)propan-1-one], the IC50 was 0.001 to 10 µM.
In the case of `CNS(=O)(=O)c1cccc(C(=O)N2CCc3c(cccc3Nc3ccc(C(F)(F)F)cc3)C2)c1` [Compound O-0200, N-methyl-3-(5-((4-(trifluoromethyl)phenyl)amino)-1,2,3,4-tetrahydroisoquinoline-2-carbonyl)benzenesulfonamide], the IC50 is reported as 0.001 to 10 µM.
Work on `O=C1NC(=O)C(CC(=O)N2CCc3c(cccc3Nc3ccc(C(F)(F)F)cc3F)C2)N1` (centres unmarked) [Compound O-0196, 5-(2-(5-((2-fluoro-4-(trifluoromethyl)phenyl)amino)-3,4-dihydroisoquinolin-2(1H)-yl)-2-oxoethyl)imidazolidine-2,4-dione] yielded an IC50 of 0.001 to 10 µM.
In the case of `O=C(CCS(=O)(=O)C(F)(F)F)N1CCc2c(cccc2Nc2ccc(C(F)(F)F)cc2)C1` [Compound O-0010, 1-(5-((4-(trifluoromethyl)phenyl)amino)-3,4-dihydroisoquinolin-2(1H)-yl)-3-((trifluoromethyl)sulfonyl)propan-1-one], the IC50 is reported as 0.001 to 10 µM.
Molecule `O=C(Nc1ccccn1)N1CCC(C(=O)N2CCc3c(cccc3Nc3ccc(C(F)(F)F)cn3)C2)C1` (centres unmarked) [Compound O-0093, N-(pyridin-2-yl)-3-(5-((5-(trifluoromethyl)pyridin-2-yl)amino)-1,2,3,4-tetrahydroisoquinoline-2-carbonyl)pyrrolidine-1-carboxamide] has an IC50 of 0.001 to 10 µM.
In the case of `O=C(Cc1c[nH]cn1)N1CCc2c(cccc2Nc2ccc(C(F)(F)F)cc2)C1` [Compound O-0053, 2-(1H-imidazol-4-yl)-1-(5-((4-(trifluoromethyl)phenyl)amino)-3,4-dihydroisoquinolin-2(1H)-yl)ethan-1-one], the IC50 is reported as 0.001 to 10 µM.
`NC(=O)NCCC(=O)N1CCc2c(cccc2Nc2ccc(C(F)(F)F)cc2)C1` [Compound O-0056, 1-(3-oxo-3-(5-((4-(trifluoromethyl)phenyl)amino)-3,4-dihydroisoquinolin-2(1H)-yl)propyl)urea] gave an IC50 of 0.001 to 10 µM.
`CN(c1ccc(C(F)(F)F)cc1)c1cccc2c1CCN(C(=O)CCS(=O)(=O)C(F)(F)F)C2` [Compound O-0016, 1-(5-(methyl(4-(trifluoromethyl)phenyl)amino)-3,4-dihydroisoquinolin-2(1H)-yl)-3-((trifluoromethyl)sulfonyl)propan-1-one] gave an IC50 of 0.001 to 10 µM.
Molecule `C=CC(=O)Nc1ccnc(C(=O)N2CCc3c(cccc3Nc3ccc(C(F)(F)F)cc3)C2)c1` [Compound O-0036, N-(2-(5-((4-(trifluoromethyl)phenyl)amino)-1,2,3,4-tetrahydroisoquinoline-2-carbonyl)pyridin-4-yl)acrylamide] has an IC50 of 0.001 to 10 µM.

— patent US20250368614A1, “COMPOUNDS AND METHODS FOR YAP/TEAD MODULATION AND INDICATIONS THEREFOR” (OPNA BIO SA, priority 2023, published 2025)
